According to US8269017B2, “Compounds for the treatment of proliferative disorders” (Synta Pharmaceuticals Corporation, priority 2005, dated 2012):
“Also recorded” adds a separate entry of the source. Read-outs that look alike come from different tables or passages of the source.

Experiments:
[1] = system: human tumor cell line MDA-MB-435S; assay: Nude mouse xenograft, MDA-MB-435S (Example 10); assay type: in vivo; settings: Compound 169 at 2 mg/kg, Compound 174 at 4.55 mg/kg body weight, i.v., 1 time/week, 3 doses
Experimental: (§1) Seven to eight week old, female Crl:CD-1-nuBR (nude) mice were obtained from Charles River Laboratories (Wilmington, Mass., USA). Animals were housed 4-5/cage in micro-isolators, with a 12 hr/12 hr light/dark cycle, acclimated for at least 1 week prior to use and fed normal laboratory chow ad libitum. Studies were conducted on animals between 8 and 10 weeks of age at implantation. To implant MDA-MB-4355 tumor cells into nude mice, the cells were trypsinized as above, washed in PBS and resusupended at a concentration of 50×10(6) cells/ml in PBS. Using a 27 gauge needle and 1 cc syringe, 0.1 ml of the cell suspension was injected into the corpus adiposum of nude mice. The corpus adiposum is a fat body located in the ventral abdominal vicera in the right quadrant of the abdomen at the juncture of the os coxae (pelvic bone) and the os femoris (femur).
Tumors were then permitted to develop in vivo until the majority reached an average of 100-200 mm^3 in tumor volume, which typically required 2-3 weeks following implantation. […] Tumor volumes (V) were calculated by caliper measurement of the width (W), length (L) and thickness (T) of tumors using the following formula: V=0.5236×(L×W×T). Animals were randomized into treatment groups so that the median tumor volumes of each group were similar at the start of dosing. % T/C values, as a measure of efficacy, were determined as follows: • (i) If ΔT>0: % T/C=[…] • (ii) If ΔT<0: % T/C=(ΔT/T0)×100 • (iii) ΔT=Change in median tumor volume between start of dosing and the end of study. • (iv) ΔC=Change in median tumor volume between start of dosing and the end of study. • (v) T0=Median tumor volume at start of dosing.
(§2) Compounds were formulated in either D5W (Compounds 169 and 174) or DRD (Compound 178). For formulations in D5W, solutions of test articles were prepared by dissolving the appropriate amounts of each compound in 5% dextrose in water (Abbott Laboratories, North Chicago, Ill., USA) by sonication in an ultrasonic water bath. For formulations in DRD, stock solutions of test articles were prepared by dissolving the appropriate amounts of each compound in dimethyl sulfoxide (DMSO) by sonication in an ultrasonic water bath. Stock solutions were prepared weekly, stored at −20° C. and diluted fresh each day for dosing. A solution of 20% Cremophore RH40 (polyoxyl 40 hydrogenated castor oil; BASF Corp., Aktiengesellschaft, Ludwigshafen, Germany) in 5% dextrose in water (Abbott Laboratories, North Chicago, Ill., USA) was also prepared by first heating 100% Cremophore RH40 at 50-60° C. until liquefied and clear, diluting 1:5 with 100% D5W, reheating again until clear and then mixing well. This solution was stored at room temperature for up to 3 months prior to use. […]

[2] = Body weight change in EMT6 tumor growth study; assay type: in vivo, nude mouse
Experimental: Seven to eight week old, female Crl:CD-1-nuBR (nude) mice were obtained from Charles River Laboratories (Wilmington, Mass., USA). Animals were housed 4-5/cage in micro-isolators, with a 12 hr/12 hr light/dark cycle, acclimated for at least 1 week prior to use and fed normal laboratory chow ad libitum. Studies were conducted on animals between 8 and 10 weeks of age at implantation. To implant EMT6 tumor cells into nude mice, the cells were trypsinized as above, washed in PBS and resusupended at a concentration of 10×10^6 cells/mL in PBS. Using a 27 gauge needle and 1 cc syringe, 0.1 mL of the cell suspension was injected subcutaneously into the flank of each nude mouse. Tumor-bearing animals were given single intravenous (i.v.) bolus injections of either vehicle or Compound 174 at 10 mL per kg body weight. To measure the effect of the drug treatment on tumor growth rates, tumor volumes were measured 3 days after dosing (FIG. 22).

HL-60 (T-cell leukemia) = assay: In vitro cytotoxicity, MTS assay, HL-60; assay type: cell-based, human; settings: Homo sapiens
Experimental: (§3) The in vitro cytotoxicity of the compounds of the invention was determined in the following human cell lines: HL-60 (T-cell leukemia), MDA-435 and MCF-7 (human breast carcinoma), NCI-H460 and H29 (colon carcinoma), DU145 (prostate carcinoma), and MES-SA and MES-SA/DX5 (uterine sarcoma). MES-SA is a model of uterine sarcoma, and the cell are sensitive to a number of chemotherapeutic agents including doxorubicin, dactinomycin, mitomycin C, taxol and bleomycin, but resistant to vinblastine and cisplatin. MES-SA/Dx5 was established in the presence of increasing concentrations of doxorubicin. […] All cells were purchased from ATCC.
(§4) The cell lines were maintained in RPMI1640 (GIBCO) supplemented with 10% FCS, 100 units/mL penicillin, 100 ug/ml streptomycin, and 2 mM L-glutamine. Cells were split every third day and diluted to a concentration of 2×10^5 cells/mL one day before the experiment was performed. All experiments were performed on exponentially growing cell cultures. Cell densities were 2.5×10^4 cells/mL in all experiments.
(§5) Compounds of the invention were prepared by dissolving the compound at a concentration of 10 mM in 100% DMSO. Final concentrations 10, 1, 0.1, 0.01 and 0.001 μM were obtained by diluting the stock solution directly into the tissue culture medium.

[3] = system: MES-SA/DX5 (uterine sarcoma, MDR-1); assay: cells; assay type: cell-based; settings: Homo sapiens, MDR1, 72 h, MES/DX5 (MDR-1), MTS assay
Experimental: as §3, §4, §5

MES-SA (uterine sarcoma) = assay: In vitro cytotoxicity, MTS assay, MES-SA; assay type: cell-based, human; settings: Homo sapiens, MES-SA (Uterine Carcinoma)
Experimental: as §3, §4, §5

[4] = Body weight change in MDA-MB-435S xenograft study (Example 10); assay type: in vivo, nude mouse; settings: Compound 169 at 2 and 1 mg/kg, Compound 174 at 4.55 and 2.28 mg/kg body weight, i.v., 1 time per week, 3 doses; Hydrochloride
Experimental: as §1
as §2, with “use. To prepare DRD formulations for daily dosing, DMSO stock solutions were diluted 1:10 with 20% Cremophore RH40.” for “use.”

[5] = system: primary human umbilical vein endothelium cells (HUVEC cells); assay: Microtubule depolymerization in HUVEC cells (anti-tubulin immunofluorescence); assay type: cell-based; settings: 24 hr
Experimental: (§6) Depolymerizing microtubules not only kills dividing tumor cells but also induces disruption of newly generated blood vessels in tumor. The potency of Compound 249 in depolymerizing microtubules was examined in Africa green monkey kidney fibroblasts (CV1 cells) and primary human umbilical vein endothelium cells (HUVEC cells). The cells were treated with drugs (1, 10, 100, and 1000 nM for CV-1 and 1, 5, 10, 50, 100 nM for HUVEC) for 24 hr and fixed with 3% paraformaldehyde followed by cold methanol treatment to preserve both microtubule structures and depolymerized tubulin in the cytoplasm. The cells were stained with anti-tubulin antibody and subsequently fluorescent conjugated secondary antibody to visualize microtubule networks or cytoplasmic tubulin with fluorescent microscopy. As shown in FIG. 20 and FIG. 21, Compound 249 completely depolymerizes MT in a considerable proportion of CV1 cells at 10 nM and HUVEC cells at 1 nM (about 10% for both cell lines; data not shown). At 100 nM for CV1 and 5 nM for HUVEC cells, microtubules were completely depolymerized in nearly 100% cells. Tubulin staining in these cells was shown as cytoplasmic location and no microtubule structures were found in those cells. […] Compound 249 is a potent microtubule depolymerizing drug and HUVEC cells are extremely sensitive to Compound 249's anti-microtubule effect.

[6] = system: Africa green monkey kidney fibroblasts (CV1 cells); assay: Microtubule depolymerization in CV-1 cells (anti-tubulin immunofluorescence); assay type: cell-based; settings: 24 hr
Experimental: as §6

[7] = system: human tumor cell line MDA-MB-435S; assay: Nude mouse xenograft, MDA-MB-435S (Example 9); assay type: in vivo; settings: i.v., 3 times per week
Experimental: FBS was obtained from ATCC and all other reagents were obtained from Invitrogen Corp. (Carlsbad, Calif., USA). […] To inactivate the trypsin, 5 mL of growth media was added and then the contents of the flask were centrifuged to pellet the cells. The supernatant was aspirated and the cell pellet was resuspended in 10 mL of growth media and the cell number determined using a hemocytometer.
Animals were housed 4-5/cage in micro-isolators, with a 12 hr/12 hr light/dark cycle, acclimated for at least 1 week prior to use and fed normal laboratory chow ad libitum.

Q: Which “% T/C” value [1] does the source give for COc1ccc(-c2cnoc2-c2cc(OC)c(OC)c(OC)c2)cc1NC(=O)C(N)Cc1ccccc1.Cl (centres unmarked) [Compound 174, 2-amino-N-(2-methoxy-5-(5-(3,4,5-trimethoxyphenyl)isoxazol-4-yl)phenyl)-3-phenylpropanamide Hydrochloride] here?
A: 25%

Q: What about the “largest average percent change in body weight” value ([2]; 4.55 mg/kg body weight single i.v., one day after dosing) of the same compound?
A: −7.3%

Q: What about the “body weight lost by any individual animal” value ([2]; any point over the course of the study) of the same compound?
A: ≤ 11%

Q: What about the IC50 (HL-60 (T-cell leukemia); HL-60, HL60 (Leukemia), 72 hours, read-out: IC50) of the same compound?
A: 2 nM

Q: What about the IC50 [3] of the same compound?
A: 0.1 nM

Q: What about the IC50 (MES-SA (uterine sarcoma); 72 hours, read-out: IC50) of the same compound?
A: 0.1 nM

Q: And the “overt toxicity (effect on body weights)” value [4]?
A: not overtly toxic; also recorded: not associated with overt toxicity

Q: With COc1ccc(-c2cnoc2-c2cc(OC)c(OC)c(OC)c2)cc1N [Compound 249, 2-methoxy-5-(5-(3,4,5-trimethoxyphenyl)isoxazol-4-yl)aniline] as the compound, how does the IC50 (HL-60 (T-cell leukemia); HL-60, 72 h, HL60 (Leukemia)) read?
A: 1 nM

Q: And the microtubule structure ([5]; 1 nM)?
A: Fragmented microtubules were found

Q: And the “proportion of cells with completely depolymerized microtubules” value (from here on “proportion of cells”) ([5]; 1 nM)?
A: about 10%

Q: And the “proportion of cells” value ([5]; 5 nM)?
A: ~100%

Q: What about the IC50 [3] of the same compound?
A: 1 nM

Q: And the IC50 (MES-SA (uterine sarcoma); MES-SA, 72 h)?
A: 1 nM

Q: And the “proportion of cells” value ([6]; 10 nM)?
A: about 10%

Q: What about the “proportion of cells” value ([6]; 100 nM) of the same compound?
A: ~100%

Q: What does the source list for CC(=O)O[C@H]1C(=O)[C@@]2(C)[C@H]([C@H](OC(=O)c3ccccc3)[C@]3(O)C[C@H](OC(=O)[C@H](O)[C@@H](NC(=O)c4ccccc4)c4ccccc4)C(C)=C1C3(C)C)[C@]1(OC(C)=O)CO[C@@H]1C[C@@H]2O [paclitaxel, Paclitaxel]?
A: tumor regression ([7]; paclitaxel at 7.5 mg/kg body weight, 10 doses): did not; tumor growth compared to vehicle ([7]; paclitaxel at 7.5 mg/kg): decreased tumor growth
